In brackets after ≈: the same amount, converted by molar mass.
Assays:
HL-60 = assay: Cytotoxicity against human HL60 cells after 24 hrs by SRB assay; format: functional, cell-based; details: HL-60, 24 h
A549 = assay: Cytotoxicity against human A549 cells after 72 hrs by MTT assay; format: functional, cell-based; details: A549, 72 h
Bel-7402 = assay: Cytotoxicity against human Bel7402 cells after 72 hrs by MTT assay; format: functional, cell-based; details: Bel-7402, 72 h
P388 = assay: Cytotoxicity against mouse P388 cells after 24 hrs by SRB assay; format: functional, cell-based; details: P388, 24 h
Bacillus subtilis = assay: Antibacterial activity against Bacillus subtilis after 24 hrs by agar dilution method; format: functional
[1] = system: Radical scavenging activity; assay: Antioxidant activity assessed as DPPH free radical scavenging activity after 30 mins; format: functional
Candida albicans = assay: Antifungal activity against Candida albicans after 24 hrs by agar dilution method; format: functional
Escherichia coli = assay: Antibacterial activity against Escherichia coli after 24 hrs by agar dilution method; format: functional

| SMILES | IC50 (HL-60) | IC50 (A549) | IC50 (Bel-7402) | IC50 (P388) | MIC (Bacillus subtilis) | IC50 [1] | MIC (Candida albicans) | MIC (Escherichia coli) |
| --- | --- | --- | --- | --- | --- | --- | --- | --- |
| COc1cc([C@@H]2c3cc4c(cc3[C@@H](O[C@@H]3O[C@@H]5CO[C@@H](C)O[C@H]5[C@H](O)[C@H]3O)[C@H]3COC(=O)[C@H]23)OCO4)cc(OC)c1O [ETOPOSIDE] | 0.042 µM | 0.63 µM | 1.03 µM | 0.05 µM |  |  |  |  |
| CCCCCCCCC/C=C\CC/C=C/[C@@H](O)[C@H](CO[C@@H]1O[C@H](CO)[C@@H](O)[C@H](O)[C@H]1O)NC(=O)[C@H](O)/C=C/CCCCCCCCCCCCCC [ALTERNAROSIDE C] | > 100 µM | > 100 µM | > 100 µM | > 100 µM | 135 µM (≈ 99.9 µg/mL) | > 500 µM | 270 µM (≈ 200 µg/mL) | 135 µM (≈ 99.9 µg/mL) |
| O=C1O[C@H]([C@@H](O)CO)C(O)=C1O [ASCORBIC ACID] |  |  |  |  |  | 22 µM |  |  |
| O=C(O)c1cn(C2CC2)c2cc(N3CCNCC3)c(F)cc2c1=O [CIPROFLOXACIN LACTATE] |  |  |  |  | 7.42 µM |  |  |  |
| C=C(CCCCCCCCC)C(=O)CC/C=C/[C@@H](O)[C@H](CO[C@@H]1O[C@H](CO)[C@@H](O)[C@H](O)[C@H]1O)NC(=O)[C@H](O)/C=C/CCCCCCCCCCCCCC [ALTERNAROSIDE A] | > 100 µM | > 100 µM | > 100 µM | > 100 µM | 130 µM (≈ 99.9 µg/mL) | > 500 µM | 260 µM (≈ 200 µg/mL) | 130 µM (≈ 99.9 µg/mL) |
| OC(Cn1cncn1)(Cn1cncn1)c1ccc(F)cc1F [FLUCONAZOLE] |  |  |  |  |  |  | 5.1 µM (≈ 1.56 µg/mL) |  |
| CCCCCCCCCCCCCC/C=C/[C@@H](O)C(=O)N[C@@H](CO[C@@H]1O[C@H](CO)[C@@H](O)[C@H](O)[C@H]1O)[C@H](O)/C=C/CC/C=C(\C)CCCCCCCC [ALTERNAROSIDE B] | > 100 µM | > 100 µM | > 100 µM | > 100 µM | 68 µM (≈ 50.3 µg/mL) | > 500 µM | 270 µM (≈ 200 µg/mL) | 135 µM (≈ 99.9 µg/mL) |

From ChEMBL document CHEMBL1154232, “Cerebrosides of the halotolerant fungus Alternaria raphani isolated from a sea salt field” (J Nat Prod, 2009)
